Data as given in ChEMBL document CHEMBL4184286, “Discovery of morpholine-based aryl sulfonamides as Nav1.7 inhibitors” (Bioorg Med Chem Lett, 2018).

Assays:
[1] = target: Sodium channel protein type 9 subunit alpha (Homo sapiens, UniProt Q15858); test: Antagonist activity at recombinant human Nav1.7 expressed in HEK293 cells assessed as reduction in channel current at -60 mV holding potential after 600 secs by barracuda automated electrophysiology method; format: cell-based
[2] = target: Sodium channel protein type 5 subunit alpha (Homo sapiens, UniProt Q14524); test: Antagonist activity at recombinant human Nav1.5 expressed in HEK293 cells assessed as reduction in channel current at -50 mV holding potential after 600 secs by barracuda automated electrophysiology method; format: ADME, cell-based
Sodium channel protein type 5 subunit alpha, sequence (Q14524 whole entry): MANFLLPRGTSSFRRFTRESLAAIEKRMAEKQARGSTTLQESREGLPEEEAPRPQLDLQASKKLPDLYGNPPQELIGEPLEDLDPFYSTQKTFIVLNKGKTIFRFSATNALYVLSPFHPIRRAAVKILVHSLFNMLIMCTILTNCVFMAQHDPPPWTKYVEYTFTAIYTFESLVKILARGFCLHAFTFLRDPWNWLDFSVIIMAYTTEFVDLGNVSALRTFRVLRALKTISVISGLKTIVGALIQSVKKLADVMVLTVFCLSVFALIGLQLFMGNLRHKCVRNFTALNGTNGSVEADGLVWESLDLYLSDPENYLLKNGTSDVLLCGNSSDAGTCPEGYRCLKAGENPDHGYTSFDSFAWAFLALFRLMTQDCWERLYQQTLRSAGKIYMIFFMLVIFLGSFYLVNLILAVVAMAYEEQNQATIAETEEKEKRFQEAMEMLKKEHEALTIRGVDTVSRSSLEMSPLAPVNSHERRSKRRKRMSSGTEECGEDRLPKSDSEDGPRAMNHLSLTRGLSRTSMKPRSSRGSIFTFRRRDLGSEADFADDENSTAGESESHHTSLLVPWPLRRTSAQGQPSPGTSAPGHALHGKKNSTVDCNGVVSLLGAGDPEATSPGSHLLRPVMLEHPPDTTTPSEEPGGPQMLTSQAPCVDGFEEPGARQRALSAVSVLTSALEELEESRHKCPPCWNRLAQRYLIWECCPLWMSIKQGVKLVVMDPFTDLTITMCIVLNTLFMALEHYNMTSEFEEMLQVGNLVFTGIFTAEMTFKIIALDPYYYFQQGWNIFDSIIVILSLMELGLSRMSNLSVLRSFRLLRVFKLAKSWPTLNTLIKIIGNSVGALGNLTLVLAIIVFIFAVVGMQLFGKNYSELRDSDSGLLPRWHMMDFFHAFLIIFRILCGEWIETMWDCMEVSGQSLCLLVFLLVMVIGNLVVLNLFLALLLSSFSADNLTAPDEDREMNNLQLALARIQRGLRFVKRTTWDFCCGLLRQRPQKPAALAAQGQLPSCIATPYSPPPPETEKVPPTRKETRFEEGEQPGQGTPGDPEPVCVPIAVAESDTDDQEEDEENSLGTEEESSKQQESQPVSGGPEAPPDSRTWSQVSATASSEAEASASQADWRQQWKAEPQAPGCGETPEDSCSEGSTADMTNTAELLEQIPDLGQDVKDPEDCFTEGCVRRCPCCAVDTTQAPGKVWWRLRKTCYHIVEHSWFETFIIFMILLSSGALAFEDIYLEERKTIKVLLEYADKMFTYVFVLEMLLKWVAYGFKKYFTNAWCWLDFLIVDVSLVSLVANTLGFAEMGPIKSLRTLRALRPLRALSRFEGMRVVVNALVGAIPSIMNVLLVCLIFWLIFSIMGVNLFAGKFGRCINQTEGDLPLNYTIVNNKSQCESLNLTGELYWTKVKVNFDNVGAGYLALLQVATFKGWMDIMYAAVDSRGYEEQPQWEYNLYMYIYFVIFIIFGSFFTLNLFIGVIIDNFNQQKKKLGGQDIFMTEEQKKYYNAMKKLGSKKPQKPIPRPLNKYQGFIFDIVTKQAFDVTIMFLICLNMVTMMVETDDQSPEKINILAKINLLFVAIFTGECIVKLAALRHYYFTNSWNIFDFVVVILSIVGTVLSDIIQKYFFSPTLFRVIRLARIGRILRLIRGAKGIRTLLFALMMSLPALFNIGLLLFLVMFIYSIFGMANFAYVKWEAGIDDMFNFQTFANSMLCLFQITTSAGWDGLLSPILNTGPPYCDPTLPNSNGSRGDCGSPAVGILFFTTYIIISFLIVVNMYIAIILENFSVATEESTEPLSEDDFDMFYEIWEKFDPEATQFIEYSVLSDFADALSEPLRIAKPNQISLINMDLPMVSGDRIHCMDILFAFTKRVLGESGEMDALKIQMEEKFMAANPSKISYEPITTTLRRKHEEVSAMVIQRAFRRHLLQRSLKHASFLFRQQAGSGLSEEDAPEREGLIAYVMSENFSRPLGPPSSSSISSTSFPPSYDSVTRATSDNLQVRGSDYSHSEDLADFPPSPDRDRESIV

Sodium channel protein type 9 subunit alpha, sequence (Q15858 whole entry): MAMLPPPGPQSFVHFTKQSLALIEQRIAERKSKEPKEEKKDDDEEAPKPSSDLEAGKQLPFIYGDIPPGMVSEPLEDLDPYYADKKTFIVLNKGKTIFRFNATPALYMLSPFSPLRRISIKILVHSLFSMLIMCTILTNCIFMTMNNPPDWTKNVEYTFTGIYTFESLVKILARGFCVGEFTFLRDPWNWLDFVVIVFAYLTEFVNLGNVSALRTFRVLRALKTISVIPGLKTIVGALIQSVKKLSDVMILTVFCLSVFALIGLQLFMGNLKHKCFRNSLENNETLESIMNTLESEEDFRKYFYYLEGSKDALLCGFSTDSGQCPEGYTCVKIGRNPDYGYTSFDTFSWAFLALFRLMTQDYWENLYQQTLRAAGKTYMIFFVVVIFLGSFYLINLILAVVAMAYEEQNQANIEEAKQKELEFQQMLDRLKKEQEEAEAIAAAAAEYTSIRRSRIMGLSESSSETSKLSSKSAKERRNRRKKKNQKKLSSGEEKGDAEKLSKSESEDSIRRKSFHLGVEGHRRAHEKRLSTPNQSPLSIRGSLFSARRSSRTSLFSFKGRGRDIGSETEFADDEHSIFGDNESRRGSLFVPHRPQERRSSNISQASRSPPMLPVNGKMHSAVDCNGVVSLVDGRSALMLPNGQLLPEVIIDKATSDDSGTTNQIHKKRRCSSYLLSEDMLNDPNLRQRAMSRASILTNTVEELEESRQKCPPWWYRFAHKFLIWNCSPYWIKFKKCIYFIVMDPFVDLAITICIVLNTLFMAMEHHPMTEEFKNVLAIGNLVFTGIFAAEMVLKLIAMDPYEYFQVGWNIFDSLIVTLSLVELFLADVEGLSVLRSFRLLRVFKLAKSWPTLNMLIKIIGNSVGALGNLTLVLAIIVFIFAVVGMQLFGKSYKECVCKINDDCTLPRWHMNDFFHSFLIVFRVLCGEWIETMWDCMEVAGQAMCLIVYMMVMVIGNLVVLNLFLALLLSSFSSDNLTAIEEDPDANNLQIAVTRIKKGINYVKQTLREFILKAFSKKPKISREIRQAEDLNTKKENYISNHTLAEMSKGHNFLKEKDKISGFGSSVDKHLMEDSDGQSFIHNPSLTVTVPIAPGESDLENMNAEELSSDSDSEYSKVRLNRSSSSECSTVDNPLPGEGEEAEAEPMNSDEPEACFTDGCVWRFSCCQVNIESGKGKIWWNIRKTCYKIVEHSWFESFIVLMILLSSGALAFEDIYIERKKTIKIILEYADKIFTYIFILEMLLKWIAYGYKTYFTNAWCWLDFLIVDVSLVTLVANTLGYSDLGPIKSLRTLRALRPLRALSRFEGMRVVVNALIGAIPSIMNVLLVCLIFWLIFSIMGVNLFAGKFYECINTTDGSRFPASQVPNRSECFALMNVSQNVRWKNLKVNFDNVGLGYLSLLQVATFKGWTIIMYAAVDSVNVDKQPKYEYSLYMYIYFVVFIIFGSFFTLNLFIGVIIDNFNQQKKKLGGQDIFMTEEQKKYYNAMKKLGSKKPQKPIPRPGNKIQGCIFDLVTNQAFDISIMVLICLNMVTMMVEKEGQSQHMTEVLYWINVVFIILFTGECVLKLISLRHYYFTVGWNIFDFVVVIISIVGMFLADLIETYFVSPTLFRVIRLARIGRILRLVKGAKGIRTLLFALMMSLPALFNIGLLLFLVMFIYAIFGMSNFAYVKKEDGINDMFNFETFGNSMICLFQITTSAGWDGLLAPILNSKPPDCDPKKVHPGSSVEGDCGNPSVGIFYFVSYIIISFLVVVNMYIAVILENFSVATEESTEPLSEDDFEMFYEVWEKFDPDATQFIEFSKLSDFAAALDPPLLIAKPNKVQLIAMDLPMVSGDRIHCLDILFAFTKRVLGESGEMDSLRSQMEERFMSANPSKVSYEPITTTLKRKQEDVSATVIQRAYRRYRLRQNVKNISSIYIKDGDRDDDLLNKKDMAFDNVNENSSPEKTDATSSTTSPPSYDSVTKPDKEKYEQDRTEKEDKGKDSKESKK

Compound: CC(C)[C@H]1COC(Oc2cc(F)c(S(=O)(=O)Nc3ncns3)cc2F)C(c2cc(Cl)cc(Cl)c2)N1 (single isomer, unassigned; isomer A)
- IC50 [1]: 430 nM

Compound: CC(C)[C@H]1COC(Oc2cc(F)c(S(=O)(=O)Nc3ncns3)cc2F)C(c2cc(Cl)cc(Cl)c2)N1 (single isomer, unassigned; isomer B)
- IC50 [1]: 1100 nM

Compound: O=S(=O)(Nc1ncns1)c1cc(F)c(OC2OCCNC2c2ccc(F)cc2)cc1F (single isomer, unassigned; isomer A)
- IC50 [1]: 690 nM
- IC50 [2]: > 30000 nM

Compound: O=S(=O)(Nc1ncns1)c1cc(F)c(OC[C@H]2OCCN[C@@H]2c2ccc(Cl)cc2)cc1F
- IC50 [1]: 29000 nM

Compound: O=S(=O)(Nc1ncns1)c1cc(F)c(OC2OCCNC2c2cccc3nccnc23)cc1F (single isomer, unassigned; isomer B)
- IC50 [1]: 6300 nM
- IC50 [2]: > 30000 nM

Compound: COc1cccc(C2NCCOC2Oc2cc(F)c(S(=O)(=O)Nc3ncns3)cc2F)c1 (single isomer, unassigned; isomer A)
- IC50 [1]: 390 nM
- IC50 [2]: > 30000 nM

Compound: CC(C)C[C@@H]1COC(Oc2cc(F)c(S(=O)(=O)Nc3ncns3)cc2F)C(c2cc(Cl)cc(Cl)c2)N1 (single isomer, unassigned; isomer B)
- IC50 [1]: > 30000 nM

Compound: O=S(=O)(Nc1ncns1)c1cc(F)c(CO[C@H]2OCCN[C@@H]2c2ccc(F)cc2)cc1F
- IC50 [1]: 2500 nM

Compound: COc1ccc(C2NCCOC2Oc2cc(F)c(S(=O)(=O)Nc3ncns3)cc2F)cc1 (single isomer, unassigned; isomer B)
- IC50 [1]: 1800 nM
- IC50 ([2]; hek293): > 30000 nM

Compound: O=S(=O)(Nc1ncns1)c1cc(F)c(OC2OCCNC2c2ccc(Cl)c(Cl)c2)cc1F (single isomer, unassigned; isomer A)
- IC50 [1]: 1200 nM
- IC50 [2]: 1000 nM

Compound: O=S(=O)(Nc1ncns1)c1cc(F)c(OC2OCCNC2c2ccc3cnccc3c2)cc1F (single isomer, unassigned; isomer A)
- IC50 [1]: 1400 nM
- IC50 ([2]; hek293): > 30000 nM

Compound: CC1(C)CNC(c2cc(Cl)cc(Cl)c2)C(Oc2cc(F)c(S(=O)(=O)Nc3ncns3)cc2F)O1 (single isomer, unassigned; isomer B)
- IC50 [1]: 450 nM

Compound: N#Cc1ccc(C2NCCOC2Oc2cc(F)c(S(=O)(=O)Nc3ncns3)cc2F)cc1 (single isomer, unassigned; isomer B)
- IC50 [1]: 4000 nM
- IC50 ([2]; hek293): > 30000 nM

Compound: O=S(=O)(Nc1ncns1)c1cc(F)c(OC2OCCNC2c2ccc(Cl)nc2)cc1F (single isomer, unassigned; isomer A)
- IC50 [1]: 17000 nM
- IC50 ([2]; hek293): > 30000 nM

Compound: O=S(=O)(Nc1ncns1)c1cc(F)c(OC2OCCNC2c2ccc(C(F)(F)F)cc2)cc1F (single isomer, unassigned; isomer B)
- IC50 [1]: 9700 nM
- IC50 ([2]; hek293): > 30000 nM

Compound: O=S(=O)(Nc1ncns1)c1cc(F)c(OC2OCCNC2c2ccc3ncccc3c2)cc1F (single isomer, unassigned; isomer B)
- IC50 [1]: 1600 nM
- IC50 [2]: > 30000 nM

Compound: O=S(=O)(Nc1ncns1)c1cc(F)c(OC2OCCNC2c2ccc3c(c2)OCO3)cc1F (single isomer, unassigned; isomer A)
- IC50 [1]: 1500 nM
- IC50 ([2]; hek293): > 30000 nM

Compound: N#Cc1cccc(C2NCCOC2Oc2cc(F)c(S(=O)(=O)Nc3ncns3)cc2F)c1 (single isomer, unassigned; isomer B)
- IC50 [1]: 11000 nM
- IC50 ([2]; hek293): > 30000 nM

Compound: O=S(=O)(Nc1ncns1)c1cc(F)c(OC2OCCNC2c2ccc(C(F)(F)F)cc2)cc1F (single isomer, unassigned; isomer A)
- IC50 [1]: 390 nM
- IC50 [2]: > 30000 nM

Compound: CC1(C)CN[C@@H](c2cc(Cl)cc(Cl)c2)[C@H](Oc2cc(F)c(S(=O)(=O)Nc3ncns3)cc2F)O1
- IC50 [1]: 3300 nM
- IC50 [2]: 4400 nM

Compound: CC(C)[C@@H]1COC(Oc2cc(F)c(S(=O)(=O)Nc3ncns3)cc2F)C(c2cc(Cl)cc(Cl)c2)N1 (single isomer, unassigned; isomer B)
- IC50 [1]: 25000 nM

Compound: Cn1nccc1C1NCCOC1Oc1cc(F)c(S(=O)(=O)Nc2ncns2)cc1F (single isomer, unassigned; isomer A)
- IC50 [1]: 5800 nM
- IC50 ([2]; hek293): > 30000 nM

Compound: CC1(C)CNC(c2cc(Cl)cc(Cl)c2)C(Oc2cc(F)c(S(=O)(=O)Nc3ncns3)cc2F)O1 (single isomer, unassigned; isomer A)
- IC50 [1]: 140 nM

Compound: CN(C)c1noc2ccc(C3NCCOC3Oc3cc(F)c(S(=O)(=O)Nc4ncns4)cc3F)cc12 (single isomer, unassigned; isomer A)
- IC50 [1]: 70 nM

Compound: CC(C)C[C@H]1COC(Oc2cc(F)c(S(=O)(=O)Nc3ncns3)cc2F)C(c2cc(Cl)cc(Cl)c2)N1 (single isomer, unassigned; isomer A)
- IC50 [1]: 1100 nM

Compound: COc1ccc(C2NCCOC2Oc2cc(F)c(S(=O)(=O)Nc3ncns3)cc2F)cc1 (single isomer, unassigned; isomer A)
- IC50 [1]: 810 nM
- IC50 [2]: > 30000 nM

Compound: O=S(=O)(Nc1ncns1)c1cc(F)c(OC[C@H]2NCCO[C@@H]2c2ccc(Cl)cc2)cc1F
- IC50 [1]: 1500 nM

Compound: O=S(=O)(Nc1ncns1)c1cc(F)c(OC2OCCNC2c2cccc(C(F)(F)F)c2)cc1F (single isomer, unassigned; isomer B)
- IC50 [1]: 570 nM
- IC50 [2]: 4800 nM

Compound: O=S(=O)(Nc1ncns1)c1cc(F)c(OC2OCCNC2c2cc(Cl)cc(Cl)c2)cc1F (single isomer, unassigned; isomer A)
- IC50 [1]: 840 nM
- IC50 ([2]; hek293): 5600 nM

Compound: O=S(=O)(Nc1ncns1)c1cc(F)c(OC2OCCNC2c2ccc(Cl)c(Cl)c2)cc1F (single isomer, unassigned; isomer B)
- IC50 [1]: 170 nM
- IC50 [2]: 3000 nM

Compound: O=S(=O)(Nc1ncns1)c1cc(F)c(OC2OCCNC2c2cc(Cl)cc(Cl)c2)cc1F (single isomer, unassigned; isomer B)
- IC50 [1]: 28 nM
- IC50 [2]: 5600 nM

Compound: O=S(=O)(Nc1ncns1)c1cc(F)c(OC2OCCNC2c2ccc(Cl)nc2)cc1F (single isomer, unassigned; isomer B)
- IC50 [1]: 15000 nM
- IC50 [2]: > 30000 nM

Compound: CC(C)[C@@H]1COC(Oc2cc(F)c(S(=O)(=O)Nc3ncns3)cc2F)C(c2cc(Cl)cc(Cl)c2)N1 (stereo in doubt; 66)
- IC50 [1]: 14000 nM

Compound: CN(C)c1noc2ccc(C3NCCOC3Oc3cc(F)c(S(=O)(=O)Nc4ncns4)cc3F)cc12 (single isomer, unassigned; isomer B)
- IC50 [1]: 140 nM
- IC50 [2]: 5000 nM

Compound: COc1cccc(C2NCCOC2Oc2cc(F)c(S(=O)(=O)Nc3ncns3)cc2F)c1 (single isomer, unassigned; isomer B)
- IC50 [1]: 1600 nM
- IC50 ([2]; hek293): > 30000 nM

Compound: O=S(=O)(Nc1ncns1)c1cc(F)c(OC2OCCNC2c2ccc3c(c2)OCO3)cc1F (single isomer, unassigned; isomer B)
- IC50 [1]: 1100 nM
- IC50 [2]: > 30000 nM

Compound: CC(C)C[C@@H]1COC(Oc2cc(F)c(S(=O)(=O)Nc3ncns3)cc2F)C(c2cc(Cl)cc(Cl)c2)N1 (single isomer, unassigned; isomer A)
- IC50 [1]: 1700 nM

Compound: O=S(=O)(Nc1ncns1)c1cc(F)c(OC2OCCNC2c2cccc3nccnc23)cc1F (single isomer, unassigned; isomer A)
- IC50 [1]: 6600 nM
- IC50 ([2]; hek293): > 30000 nM

Compound: COc1ccccc1C1NCCOC1Oc1cc(F)c(S(=O)(=O)Nc2ncns2)cc1F (single isomer, unassigned; isomer A)
- IC50 [1]: 200 nM
- IC50 [2]: > 30000 nM

Compound: Cn1nc(C(F)(F)F)cc1C1NCCOC1Oc1cc(F)c(S(=O)(=O)Nc2ncns2)cc1F (single isomer, unassigned; isomer B)
- IC50 [1]: 4500 nM
- IC50 [2]: > 30000 nM

Compound: CC1(C)COC(Oc2cc(F)c(S(=O)(=O)Nc3ncns3)cc2F)C(c2ccc(Cl)cc2)N1 (single isomer, unassigned; isomer B)
- IC50 [1]: 580 nM

Compound: CC1(C)COC(Oc2cc(F)c(S(=O)(=O)Nc3ncns3)cc2F)C(c2ccc(Cl)cc2)N1 (single isomer, unassigned; isomer A)
- IC50 [1]: 350 nM

Compound: N#Cc1ccc(C2NCCOC2Oc2cc(F)c(S(=O)(=O)Nc3ncns3)cc2F)cc1 (single isomer, unassigned; isomer A)
- IC50 [1]: 1500 nM
- IC50 [2]: > 30000 nM

Compound: COc1ccccc1C1NCCOC1Oc1cc(F)c(S(=O)(=O)Nc2ncns2)cc1F (single isomer, unassigned; isomer B)
- IC50 [1]: 4600 nM
- IC50 ([2]; hek293): > 30000 nM

Compound: O=S(=O)(Nc1ncns1)c1cc(F)c(OC2OCCNC2c2cccc(C(F)(F)F)c2)cc1F (single isomer, unassigned; isomer A)
- IC50 [1]: 310 nM
- IC50 [2]: 580 nM

Compound: O=S(=O)(Nc1ncns1)c1cc(F)c(OC2OCCNC2c2ccc3ncccc3c2)cc1F (single isomer, unassigned; isomer A)
- IC50 [1]: 2800 nM
- IC50 ([2]; hek293): > 30000 nM

Compound: O=S(=O)(Nc1ncns1)c1cc(F)c(OC2OCCNC2c2ccc(Cl)cc2Cl)cc1F (single isomer, unassigned; isomer A)
- IC50 [1]: 260 nM
- IC50 [2]: 1700 nM

Compound: N#Cc1cccc(C2NCCOC2Oc2cc(F)c(S(=O)(=O)Nc3ncns3)cc2F)c1 (single isomer, unassigned; isomer A)
- IC50 [1]: 920 nM
- IC50 [2]: > 30000 nM

Compound: Cn1nccc1C1NCCOC1Oc1cc(F)c(S(=O)(=O)Nc2ncns2)cc1F (stereo in doubt; 55)
- IC50 [1]: 1800 nM
- IC50 [2]: > 30000 nM

Compound: O=S(=O)(Nc1ncns1)c1cc(F)c(OC2OCCNC2c2ccc3cnccc3c2)cc1F (single isomer, unassigned; isomer B)
- IC50 [1]: 510 nM
- IC50 [2]: > 30000 nM

Compound: CC(C)C[C@H]1COC(Oc2cc(F)c(S(=O)(=O)Nc3ncns3)cc2F)C(c2cc(Cl)cc(Cl)c2)N1 (stereo in doubt; 61)
- IC50 [1]: 6500 nM
